Assay [1] deals with Mongrel dogs (left ventricular pressure, dp/dt max). Put plainly: Cardiotonic activity (dp/dt max change, anesthetized dogs, i.v.). It counts as in vivo. As to conditions: Canis lupus familiaris, intravenous, read-out: dp/dt M.C. (percentage of dp/dt max changes). The method, then: Test Method A (Cardiotonic activity): Mongrel dogs of either sex were anesthetized with sodium pentobarbital, 35 mg/kg, i.p. The animals were allowed to breathe spontaneously. The left carotid artery was isolated and a catheter (USCI, #8F) filled with heparinized saline was inserted and advanced into the left ventricle. the catheter was connected to a pressure transducer (Nihonkohden, MPU-0.5A) to measure the left ventricular pressure, from which dp/dt max was derived by analog computing. To measure the systemic blood pressure the left femoral artery was cannulated. The blood pressure pulse was used to trigger a heart rate meter. Another catheter was positioned in the vena cave through right femoral vein for injection of drugs. Systemic blood pressure, left ventricular pressure, dp/dt max and heart rate were recorded simultaneously on a polygram (Nihonkohden, RJG-4008). Test compound was dissolved in distilled water (0.2 ml/kg) or dimethyl sulfoxide (0.04 ml/kg) and injected into the femoral veing. The parameters after dosing were compared with those during the predosing period. Test results were represented in terms of percentage of dp/dt max changes (dp/dt M.C) calculated by following formula, and are shown in table 1. [formula]

Assay [2] has as its system platelet aggregation induced by collagen. The assay is described as follows: Anti-platelet activity: collagen-induced aggregation of rabbit platelet rich plasma. The format is cell-based. As to conditions: Oryctolagus cuniculus, 2 min, rabbit PRP, collagen 2.5 μg/ml, pH 7.4, 37° C., read-out: ID50 Collagen. The method, then:
(§1) Test Method B (Anti-platellet activity):
(§2) Platelet rich plasma (PRP) which contains 6.5-7.5×10^8 platelet/ml was prepared from rabbit blood. To the 200 μl of PRP, 5 μl of calcium chloride (1 mM) and 50 μl of pH 7.4 Tris-acetate solution (5 mM) containing 120 mM NaCl and test compound were added successively, and then stirred for 2 min. at 37° C. To the solution, 5 μl of adenosine diphosphate (ADP) (2.5 μM) or collagen (2.5 μg/ml) was added as an aggregation inducer. Aggregation was measured by using an aggregometer (NKK HEMA TRACER 1).

In assay [3] the test system is platelet aggregation induced by adenosine diphosphate (ADP). Put plainly: Anti-platelet activity: ADP-induced aggregation of rabbit platelet rich plasma. It counts as cell-based. Particulars: Oryctolagus cuniculus, 2 min, rabbit PRP, ADP 2.5 μM, pH 7.4, 37° C., read-out: ID50 ADP. The procedure: as §1, §2
Assay [4] deals with Mongrel dogs (cerebral blood flow). The assay is described as follows: Cerebrovascular vasodilative activity (cerebral blood flow, anesthetized dogs, i.v.). It counts as in vivo. Particulars: intravenous. The procedure: Test Method C (Cerebrovescular vasodilative activity):
Mongrel dogs of either sex were anesthetized with sodium pentobarbital (35 mg/kg. i.p.). After the external carotid artery was ligated, a flowmeter probe was fitted to the common carotid artery. Polyethylene cannulas were inserted in the femoral artery for measurement of blood pressure and in the saphenous vein for injection of drug. Blood pressure was measured with a pressure transducer and the arterial pulse was also used to trigger a heart rate meter. Blood pressure, heart rate and cerebral blood flow (C.B.F.) were recorded on a polygraph.
Test compound was dissolved in an equimolar solution of hydrochloric acid and diluted with water (0.2 ml/kg), and injected intravenously. The prarmeters after dosing were compared with those during the predosing period.

Assay [5] deals with uninephrectomized DOCA/saline male Wistar rats (mean arterial pressure). Put plainly: Antihypertensive activity (DOCA hypertensive rats, oral). The format is in vivo. Particulars: 1.0 mg/kg. The method, then: Test Method D (Antihypertensive activity):
Five-week old male Wistar rats were uninephrectomized under anesthesia. Deoxycorticosterone acetate (DOCA) (30 mg/kg), suspended in peanut oil, was injected subcutaneously twice a week and 1% saline was substituted for the drinking water. Animals with mean blood pressure 150-200 mmHg were used for experiment between 5 and 7 weeks after surgery.
The test compounds were administered orally. Blood pressure was measured at the femoral artery by means of a pressure transducer and recorded as electrically integrated values of mean arterial pressure.

pIC50: −log10 of the molar value. Where a name gives a salt, the structure may show the parent alone.

In the case of `Nc1cc(-c2ccncc2)c[nH]c1=O` [Amrinone, 3-Amino-5-(4-pyridyl)-2(1H)-pyridinone, reference compound], in assay [1], the change in vivo at 0.1 mg/kg came out at 9% and the change in vivo at 1 mg/kg amounted to 80%.
As for `COc1ccc(-c2cc(=Nc3c(C)cc(C)cc3C)n(C)c(=O)n2C)cc1OC` [Example 48, 3,4-dihydro-6-(3,4-dimethoxyphenyl)-1,3-dimethyl-4-(2,4,6-trimethylphenylimino)-2(1H)-pyrimidinone], the pIC50 is 6.82 in assay [2] and 6.62 in assay [3]. Moreover, in assay [1], the change in vivo at 0.01 mg/kg came out at 43%. Further, the C.B.F. increase in assay [4] (0.01 mg/kg) is given as 40.0%; in assay [4] (0.1 mg/kg) it was 57.0%.
`COc1ccc(-c2cc(=Nc3ccc(Cl)cc3C)n(C)c(=O)n2C)cc1OC` [Example 49, 4-(4-Chloro-2-methylphenylimino)-3,4-dihydro-6-(3,4-dimethoxyphenyl)-1,3-dimethyl-2(1H)-pyrimidinone]: in assay [1], the change in vivo at 0.1 mg/kg amounted to 68%.
Regarding `COc1ccc(-c2cc(=Nc3cccnc3)n(C)c(=O)n2C)cc1OC` [Example 50, 3,4-dihydro-6-(3,4-dimethoxyphenyl)-1,3-dimethyl-4-(3-pyridylimino)-2(1H)-pyrimidinone dihydrochloride], the change in vivo at 1 mg/kg in assay [1] was determined as 98%.
For `COc1ccc(-c2cc(=Nc3ccccc3)n(C)c(=O)n2C)cc1OC` [Example 55, 3,4-Dihydro-6-(3,4-dimethoxyphenyl)-1,3-dimethyl-4-phenylimino-2(1H)-pyrimidinone], the C.B.F. increase in assay [4] (0.1 mg/kg) was 38.0%; in assay [4] (1.0 mg/kg), 77.0%.
Turning to `COc1ccc(-c2cc(=Nc3cc(OC)c(OC)c(OC)c3)n(C)c(=O)n2C)cc1OC` [Example 56, 3,4-Dihydro-6-(3,4-dimethoxyphenyl)-1,3-dimethyl-4-(3,4,5-trimethoxyphenylimino)-2(1H)-pyrimidinone], in assay [1], the change in vivo at 0.1 mg/kg is 44% and the change in vivo at 1 mg/kg is 88%. The compound further displayed a C.B.F. increase in assay [4] (0.1 mg/kg) of 50.0%. In assay [4] (1.0 mg/kg), this compound registered a C.B.F. increase of 52.0%.
For `COc1cc(OC)c(N=c2cc(-c3ccc(OC)c(OC)c3)n(C)c(=O)n2C)c(OC)c1` [Example 57, 3,4-Dihydro-6-(3,4-dimethoxyphenyl)-1,3-dimethyl-4-(2,4,6-trimethoxyphenylimino)-2(1H)-pyrimidinone], the pIC50 in assay [2] was 6.38; in assay [3] it was 6.52. In addition, the change in vivo at 0.1 mg/kg in assay [1] was 60%. In addition, the change in vivo at 1 mg/kg in assay [1] is 126%. For the same compound, in assay [5], the “Effect Max (maximum decrease of blood pressure)” value worked out at 44.0%. Besides, the results for the C.B.F. increase in assay [4] (0.01 mg/kg) and in assay [4] (0.1 mg/kg) were 59.0% and 57.0%, respectively.
Consider `COc1ccc(-c2cc(=Nc3c(C)cccc3C)n(C)c(=O)n2C)cc1OC` [Example 58, 3,4-Dihydro-6-(3,4-dimethoxyphenyl)-1,3-dimethyl-4-(2,6-dimethylphenylimino)-2(1H)-pyrimidinone], for which the pIC50 in assay [2] was 6.72. Further, in assay [1], the change in vivo at 0.1 mg/kg is 84% and the change in vivo at 1 mg/kg stood at 145%. The pIC50 in assay [3] is 6.47.
Taken in the same sequence, the figures for `COc1ccc(-c2cc(=Nc3ccc(O)cc3)n(C)c(=O)n2C)cc1OC` [Example 59, 3,4-Dihydro-6-(3,4-dimethoxyphenyl)-1,3-dimethyl-4-(4-hydroxyphenylimino)-2(1H)-pyrimidinone] were 6.64, 57%, 158% and 5.44.
As for `COc1ccc(-c2cc(=Nc3c(C)cc(C)cc3C)n(C)c(=O)n2C)cc1` [Example 62, 3,4-Dihydro-1,3-dimethyl-6-(4-methoxyphenyl)-4-(2,4,6-trimethylphenylimino)-2(1H)-pyrimidinone], in assay [1], the change in vivo at 1 mg/kg amounted to 102%.
Regarding `COc1ccc(-c2cc(=Nc3c(C)cc(C)cc3C)n(C)c(=O)[nH]2)cc1OC` [Example 64, 3,4-Dihydro-6-(3,4-dimethoxyphenyl)-3-methyl-4-(2,4,6-trimethylphenylimino)-2(1H)-pyrimidinone], in assay [1], the change in vivo at 0.1 mg/kg was determined as 98% and the change in vivo at 1 mg/kg stood at 93%.
As to `CCCn1c(-c2ccc(OC)c(OC)c2)cc(=Nc2c(C)cc(C)cc2C)n(C)c1=O` [Example 65, 3,4-Dihydro-6-(3,4-dimethoxyphenyl)-3-methyl-1-n-propyl-4-(2,4,6-trimethylphenylimino)-2(1H)-pyrimidinone], in assay [1], the change in vivo at 0.1 mg/kg was 50% and the change in vivo at 1 mg/kg was determined as 206%.
On to `COc1ccc(-c2cc(=Nc3c(C)cc(C)cc3C)[nH]c(=O)n2C)cc1OC` [Example 69, 3,4-Dihydro-6-(3,4-dimethoxyphenyl)-1-methyl-4-(2,4,6-trimethylphenylimino)-2(1H)-pyrimidinone], for which, in assay [1], the change in vivo at 0.01 mg/kg stood at 45% and the change in vivo at 0.1 mg/kg is 42%.
On to `CCn1c(-c2ccc(OC)c(OC)c2)cc(=Nc2c(C)cc(C)cc2C)n(C)c1=O` [Example 72, 3,4-dihydro-6-(3,4-dimethoxyphenyl)-1-ethyl-3-methyl-4-(2,4,6-trimethylphenylimino)-2(1H)-pyrimidinone], for which the figures for the pIC50 in assay [2] and in assay [3] were 6.77 and 6.10, respectively. The change in vivo at 0.01 mg/kg in assay [1] was determined as 12%. For the same compound, the change in vivo at 0.1 mg/kg in assay [1] was 95%. In assay [5], the “Effect Max (maximum decrease of blood pressure)” value is recorded as 38.0%. Further, the figures for the C.B.F. increase in assay [4] (0.1 mg/kg) and in assay [4] (1.0 mg/kg) were 35.0% and 59.0%, respectively.
